Results from patent publication US12545685B2 (Daiichi Sankyo Company, Limited, priority 2011, dated 2026).

Columns and labels:
[1] = biological target: T1, Mdm2/p53 binding (GST-Mdm2 / His-p53) (Homo sapiens, UniProt Q00987, L33E); assay: Mdm2/p53 binding assay (HTRF, His-p53 and GST-Mdm2); conditions: His-p53 (aa 1-132) and GST-Mdm2 (aa 25-108, L33E) 6.25 nM each; 25°C, 1 hour; values given as ranges
T1 construct: Mdm2 partial protein having Mdm2 amino acids at positions 25 to 108
How it was run: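 His-p53 (aa 1–132) and GST-Mdm2 (aa 25–108, L33E) were prepared at 6.25 nM each in the protein dilution (20 mM HEPES pH 7.4, 150 mM NaCl, 0.1% BSA). Compound in 10% DMSO buffer and XL665 anti-His/Eu anti-GST antibodies (KF buffer) were added, with 1 h at 25 °C. The 665/620 nm TR-FRET ratio gave T/C and a sigmoid-fitted IC50.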

[2] = tested on: human lung cancer-derived cell line NCI-H460 having wild-type p53; assay: Cell growth inhibition assay (MTT); assay type: cell-based; conditions: 72 h, NCI-H460 cells, 3 days culture, values given as ranges, read-out: 50% growth inhibition concentration (GI50 value)
How it was run: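 NCI-H460 cells (wild-type p53) seeded at 500 cells/well in RPMI1640 with 10% FBS, then treated the next day and grown 3 days at 37 °C. MTT read-out at OD 540 nm (660 nm reference), taken at dosing and at day 3. GI50 derived from T/C (%) dose-response curves.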

T1 sequence (Q00987 25-108 L33E): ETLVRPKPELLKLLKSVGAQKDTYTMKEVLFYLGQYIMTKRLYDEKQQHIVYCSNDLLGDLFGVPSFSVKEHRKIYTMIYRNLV

| Structure (SMILES) | IC50 [1] [nM] | GI50 [2] [nM] |
| --- | --- | --- |
| CC1(C)CCC2(CC1)N[C@@H](C(=O)N[C@H]1C[C@H](c3nnco3)C1)[C@H](c1ccnc(Cl)c1F)[C@]21C(=O)Nc2cc(Cl)ccc21 [Example 112, (3′R, 4′S, S′R)-6″-chloro-4′-(2-chloro-3-fluoropyridin-4-yl)-4,4-dimethyl-N-[trans-3-(1,3,4-oxadiazol-2-yl)cyclobutyl]-2″-oxo-1″,2″-dihydrodispiro[cyclohexane-1,2′-pyrrolidine-3′,3″-indole]-5-carboxamide] | 50 to 100 | 100 to 500 |
| CC1(C)CCC2(CC1)N[C@@H](C(=O)N[C@H]1C[C@H](C(N)=O)C1)[C@H](c1ccnc(Cl)c1F)[C@]21C(=O)Nc2cc(Cl)ccc21 [Example 114, (3′R, 4′S,5′R)—N-(trans-3-carbamoylcyclobutyl)-6″-chloro-4′-(2-chloro-3-fluoropyridin-4-yl)-4,4-dimethyl-2″-oxo-1″,2″-dihydrodispiro[cyclohexane-1,2′-pyrrolidine-3′,3″-indole]-5′-carboxamide] | 1 to 50 | 500 to 1000 |
| CC1(C)CCC2(CC1)N[C@@H](C(=O)N[C@H]1C[C@H](C(C)(C)O)C1)[C@H](c1ccnc(Cl)c1F)[C@]21C(=O)Nc2cc(Cl)ccc21 [Example 154, (3′R, 4′S,5′R)-6′-chloro-4′-(2-chloro-3-fluoropyridin-4-yl)-N-[trans-3-(2-hydroxypropan-2-yl)cyclobutyl]-4,4-dimethyl-2″-oxo-1″,2″-dihydrodispiro[cyclohexane-1,2′-pyrrolidine-3′,3″-indole]-5′-carboxamide] | 50 to 100 | 100 to 500 |
| Cc1nnc([C@@H]2CC[C@@H](NC(=O)[C@@H]3NC4(CCC(C)(C)CC4)[C@@]4(C(=O)Nc5cc(Cl)ccc54)[C@H]3c3ccnc(Cl)c3F)CO2)o1 [Example 156] | 1 to 50 | < 100 |
| CC1(C)CCC2(CC1)N[C@@H](C(=O)N[C@@H]1CC[C@@H](Cc3nnco3)OC1)[C@H](c1ccnc(Cl)c1F)[C@]21C(=O)Nc2cc(Cl)ccc21 [Example 161, (3′R, 4′S,5′R)-6″-chloro-4′-(2-chloro-3-fluoropyridin-4-yl)-4,4-dimethyl-N-[(3R,6S)-6-(1,3,4-oxadiazol-2-ylmethyl)tetrahydro-2H-pyran-3-yl]-2″-oxo-1″,2″-dihydrodispiro[cyclohexane-1,2′-pyrrolidine-3′,3″-indole]-5′-carboxamide] | 50 to 100 | 100 to 500 |
| CC1(C)CCC2(CC1)N[C@@H](C(=O)NC1CC3(C1)CC(CO)(CO)C3)[C@H](c1ccnc(Cl)c1F)[C@]21C(=O)Nc2cc(Cl)ccc21 [Example 162, (3′R, 4′S,5′R)—N-[6,6-bis(hydroxymethyl)spiro[3.3]hepta-2-yl]-6″-chloro-4′-(2-chloro-3-fluoropyridin-4-yl)-4,4-dimethyl-2′-oxo-1″,2″-dihydrodispiro[cyclohexane-1,2′-pyrrolidine-3′,3″-indole]-5′-carboxamide] | 50 to 100 | 100 to 500 |
| O=C(N[C@@H]1CC[C@@H](CO)OC1)[C@@H]1NC2(CC(CF)(CF)C2)[C@@]2(C(=O)Nc3cc(Cl)ccc32)[C@H]1c1cc(F)cc(Cl)c1 [Example 164, (3′R, 4′R, 5′R)-6″-chloro-4′-(3-chloro-5-fluorophenyl)-3,3-bis(fluoromethyl)-N-[(3R,6S)-6-(hydroxymethyl)tetrahydro-2H-pyran-3-yl]-2″-oxo-1″,2″-dihydrodispiro[cyclobutane-1,2′-pyrrolidine-3′,3″-indole]-5′-carboxamide] | 100 to 500 | 1000 to 5000 |
| CC1(C)CCC2(CC1)N[C@@H](C(=O)N[C@@H]1CC[C@@H](C(N)=O)OC1)[C@H](c1cccc(Cl)c1F)[C@]21C(=O)Nc2nc(Cl)ccc21 [Example 179, (3′R, 4′S,5′R)—N-[(3R,6S)-6-carbamoyltetrahydro-2H-pyran-3-yl]-6″-chloro-4′-(3-chloro-2-fluorophenyl)-4,4-dimethyl-2″-oxo-1″,2″-dihydrodispiro[cyclohexane-1,2′-pyrrolidine-3′,3″-pyrrolo[2,3-b]pyridine]-5′-carboxamide] | 1 to 50 | 1000 to 5000 |
| C[C@@H](O)[C@@H]1CC[C@@H](NC(=O)[C@@H]2NC3(CCC(C)(C)CC3)[C@@]3(C(=O)Nc4nc(Cl)ccc43)[C@H]2c2cccc(Cl)c2F)CO1 [Example 180, (3′R, 4′S,5′R)-6″-chloro-4′-(3-chloro-2-fluorophenyl)-N-{(3R,6S)-6-[(1R)-1-hydroxyethyl]tetrahydro-2H-pyran-3-yl}-4,4-dimethyl-2″-oxo-1″,2″-dihydrodispiro[cyclohexane-1,2′-pyrrolidine-3′,3″-pyrrolo[2,3-b]pyridine]-5′-carboxamide] | 1 to 50 | 1000 to 5000 |
| C[C@@H](O)[C@@H]1CC[C@@H](NC(=O)[C@@H]2NC3(CCC(C)(C)CC3)[C@@]3(C(=O)Nc4cc(Cl)ccc43)[C@H]2c2cccc(Cl)c2F)CO1 [Example 182, (3′R, 4′S,5′R)-6″-chloro-4′-(3-chloro-2-fluorophenyl)-N-{(3S,6S)-6-[(1R)-1-hydroxyethyl]tetrahydro-2H-pyran-3-yl}-4,4-dimethyl-2′-oxo-1″,2″-dihydrodispiro[cyclohexane-1,2′-pyrrolidine-3′,3″-indole]-5-carboxamide] | 1 to 50 | < 100 |
| CC1(C)CCC2(CC1)N[C@@H](C(=O)N[C@H]1CC[C@H](c3nnco3)CC1)[C@H](c1cccc(Cl)c1F)[C@]21C(=O)Nc2cc(Cl)ccc21 [Example 183, (3′R, 4′S,5′R)-6′-chloro-4′-(3-chloro-2-fluorophenyl)-4,4-dimethyl-N-[trans-4-(1,3,4-oxadiazol-2-yl)cyclohexyl]-2″-oxo-1″,2″-dihydrodispiro[cyclohexane-1,2′-pyrrolidine-3′,3″-indole]-5′-carboxamide] | 50 to 100 | 100 to 500 |

The next lines start with the values.

| IC50 [1] [nM] | GI50 [2] [nM] | Structure (SMILES) |
| --- | --- | --- |
| 1 to 50 | < 100 | CN(C)C(=O)[C@H]1CC[C@H](NC(=O)[C@@H]2NC3(CCC(C)(C)CC3)[C@@]3(C(=O)Nc4cc(Cl)ccc43)[C@H]2c2ccnc(Cl)c2F)CC1 [Example 113, (3′R, 4′S,5′R)-6″-chloro-4′-(2-chloro-3-fluoropyridin-4-yl)-N-[trans-4-(dimethylcarbamoyl)cyclohexyl]-4,4-dimethyl-2″-oxo-1″,2″-dihydrodispiro[cyclohexane-1,2′-pyrrolidine-3′,3″-indole]-5′-carboxamide] |
| 1 to 50 | 100 to 500 | CN(C)C(=O)[C@H]1C[C@H](NC(=O)[C@@H]2NC3(CCC(C)(C)CC3)[C@@]3(C(=O)Nc4cc(Cl)ccc43)[C@H]2c2ccnc(Cl)c2F)C1 [Example 115, (3′R, 4′S,5′R)-6″-chloro-4′-(2-chloro-3-fluoropyridin-4-yl)-N-[trans-3-(dimethylcarbamoyl)cyclobutyl]-4,4-dimethyl-2″-oxo-1″,2″-dihydrodispiro[cyclohexane-1,2′-pyrrolidine-3′,3″-indole]-5′-carboxamide] |
| 1 to 50 | < 100 | CCN(CC)C(=O)[C@@H]1CC[C@@H](NC(=O)[C@@H]2NC3(CCC(C)(C)CC3)[C@@]3(C(=O)Nc4cc(Cl)ccc43)[C@H]2c2ccnc(Cl)c2F)CO1 [Example 116, (3′R, 4′S,5′R)-6″-chloro-4′-(2-chloro-3-fluoropyridin-4-yl)-N-[(3R,6S)-6-(diethylcarbamoyl)tetrahydro-2H-pyran-3-yl]-4,4-dimethyl-2″-oxo-1″,2″-dihydrodispiro[cyclohexane-1,2′-pyrrolidine-3′,3″-indole]-5′-carboxamide] |
| 1 to 50 | 100 to 500 | CCN(CC)C(=O)[C@@H]1CC[C@@H](NC(=O)[C@@H]2NC3(CCC(C)(C)CC3)[C@@]3(C(=O)Nc4nc(Cl)ccc43)[C@H]2c2ccnc(Cl)c2F)CO1 [Example 117, (3′R, 4′S,5′R)-6″-chloro-4′-(2-chloro-3-fluoropyridin-4-yl)-N-[(3R,6S)-6-(diethylcarbamoyl)tetrahydro-2H-pyran-3-yl]-4,4-dimethyl-2″-oxo-1″,2″-dihydrodispiro[cyclohexane-1,2′-pyrrolidine-3′,3″-pyrrolo[2,3-b]pyridine]-5′-carboxamide] |
| 50 to 100 | < 100 | CC1(C)CCC2(CC1)N[C@@H](C(=O)N[C@@H]1CC[C@@H](CCO)OC1)[C@H](c1ccnc(Cl)c1F)[C@]21C(=O)Nc2cc(Cl)ccc21 [Example 160, (3′R, 4′S,5′R)-6″-chloro-4′-(2-chloro-3-fluoropyridin-4-yl)-N-[(3R,6S)-6-(2-hydroxyethyl)tetrahydro-2H-pyran-3-yl]-4,4-dimethyl-2″-oxo-1″,2″-dihydrodispiro[cyclohexane-1,2′-pyrrolidine-3′,3″-indole]-5′-carboxamide] |
| 1 to 50 | > 5000 | CC1(C)CCC2(CC1)N[C@@H](C(=O)N[C@@H]1CC[C@@H](C(=O)O)OC1)[C@H](c1ccnc(Cl)c1F)[C@]21C(=O)Nc2cc(Cl)ccc21 [Example 174, (2S,5R)-5-({[(3′B, 4′S,5′R)-6″-chloro-4′-(2-chloro-3-fluoropyridin-4-yl)-4,4-dimethyl-2″-oxo-1′″, 2″-dihydrodispiro[cyclohexane-1,2-pyrrolidine-3′,3″-indole]-5′-yl]carbonyl}amino)tetrahydro-2H-pyran-2-carboxylic acid] |
